According to ChEMBL document CHEMBL4507273 (2021):

Assays:
[1] = test system: Receptor-type tyrosine-protein kinase FLT3 (Homo sapiens), P36888 [K663Q]; settings: Compound concentration 1000.0 nM
[2] = biological target: 5-hydroxytryptamine receptor 2A (Homo sapiens, UniProt P28223); settings: Compound concentration 10.0 uM
[3] = biological target: Protein kinase C theta type (Homo sapiens) (UniProt Q04759); settings: Compound concentration 1000.0 nM
[4] = biological target: Serine/threonine-protein kinase pim-2 (Homo sapiens) (UniProt Q9P1W9); settings: Compound concentration 1000.0 nM
[5] = test system: Tyrosine-protein kinase ABL1 (Homo sapiens), P00519 [E255K]; settings: Compound concentration 1000.0 nM
[6] = test system: Epidermal growth factor receptor (Homo sapiens), P00533 [UNDEFINED MUTATION]; settings: Compound concentration 1000.0 nM
[7] = biological target: cGMP-dependent protein kinase 2 (Homo sapiens) (UniProt Q13237); settings: Compound concentration 1000.0 nM
Chain of cGMP-dependent protein kinase 2 (Homo sapiens) (Q13237 whole entry): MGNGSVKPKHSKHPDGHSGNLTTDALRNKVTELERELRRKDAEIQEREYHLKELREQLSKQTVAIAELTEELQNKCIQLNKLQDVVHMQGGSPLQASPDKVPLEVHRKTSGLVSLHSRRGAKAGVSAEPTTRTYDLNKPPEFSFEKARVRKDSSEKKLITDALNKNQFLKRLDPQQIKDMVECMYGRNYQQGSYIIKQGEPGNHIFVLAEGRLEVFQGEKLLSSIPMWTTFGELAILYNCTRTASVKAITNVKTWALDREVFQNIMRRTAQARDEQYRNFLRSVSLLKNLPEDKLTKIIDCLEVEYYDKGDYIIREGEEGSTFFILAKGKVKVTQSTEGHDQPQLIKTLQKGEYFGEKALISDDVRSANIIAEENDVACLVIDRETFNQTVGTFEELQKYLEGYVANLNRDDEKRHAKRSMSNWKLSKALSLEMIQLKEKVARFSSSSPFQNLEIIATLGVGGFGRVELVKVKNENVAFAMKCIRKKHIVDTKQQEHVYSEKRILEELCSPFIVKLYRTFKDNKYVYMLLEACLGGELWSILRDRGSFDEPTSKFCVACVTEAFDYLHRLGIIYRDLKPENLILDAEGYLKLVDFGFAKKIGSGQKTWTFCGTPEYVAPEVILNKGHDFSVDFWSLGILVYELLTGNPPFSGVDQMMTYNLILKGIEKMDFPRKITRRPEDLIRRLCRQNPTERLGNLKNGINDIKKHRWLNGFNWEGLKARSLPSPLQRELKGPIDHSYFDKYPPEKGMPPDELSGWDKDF

[8] = biological target: RAC-beta serine/threonine-protein kinase (Homo sapiens) (UniProt P31751); settings: Compound concentration 1000.0 nM
[9] = biological target: Serine/threonine-protein kinase Nek10 (Homo sapiens) (UniProt Q6ZWH5); settings: Compound concentration 1000.0 nM
[10] = biological target: 5'-AMP-activated protein kinase catalytic subunit alpha-1 (Homo sapiens) (UniProt Q13131); settings: Compound concentration 1000.0 nM
[11] = biological target: Tyrosine-protein kinase ABL2 (Homo sapiens) (UniProt P42684); settings: Compound concentration 1000.0 nM
[12] = biological target: Mitogen-activated protein kinase 15 (Homo sapiens) (UniProt Q8TD08); settings: Compound concentration 1000.0 nM
Chain of Mitogen-activated protein kinase 15 (Homo sapiens) (Q8TD08 whole entry): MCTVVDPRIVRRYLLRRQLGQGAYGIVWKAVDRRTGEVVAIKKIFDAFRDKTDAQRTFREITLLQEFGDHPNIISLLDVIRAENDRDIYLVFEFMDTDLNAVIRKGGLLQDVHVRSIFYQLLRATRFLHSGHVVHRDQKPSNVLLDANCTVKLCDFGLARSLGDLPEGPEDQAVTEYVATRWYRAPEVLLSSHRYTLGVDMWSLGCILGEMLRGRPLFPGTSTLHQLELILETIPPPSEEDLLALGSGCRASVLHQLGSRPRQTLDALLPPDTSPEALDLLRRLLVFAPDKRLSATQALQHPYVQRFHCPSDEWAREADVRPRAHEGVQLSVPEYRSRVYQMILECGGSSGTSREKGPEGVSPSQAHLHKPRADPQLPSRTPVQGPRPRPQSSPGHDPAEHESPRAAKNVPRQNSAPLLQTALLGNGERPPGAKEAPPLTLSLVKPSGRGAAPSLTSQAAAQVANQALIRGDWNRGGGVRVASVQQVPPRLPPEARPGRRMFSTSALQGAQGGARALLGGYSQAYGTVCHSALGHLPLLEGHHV

[13] = biological target: G protein-coupled receptor kinase 3 (Homo sapiens) (UniProt P35626); settings: Compound concentration 1000.0 nM
[14] = test system: Receptor-type tyrosine-protein kinase FLT3 (Homo sapiens), P36888 [D835V]; settings: Compound concentration 1000.0 nM
[15] = test system: Tyrosine-protein kinase ABL1 (Homo sapiens), P00519 [Q252H]; settings: Compound concentration 1000.0 nM
[16] = biological target: Serine/threonine-protein kinase mTOR (Homo sapiens) (UniProt P42345); settings: Compound concentration 1000.0 nM
[17] = biological target: Cyclin-dependent kinase 16 (Homo sapiens) (UniProt Q00536); settings: Compound concentration 1000.0 nM
[18] = biological target: Histamine H2 receptor (Homo sapiens, UniProt P25021); settings: Compound concentration 10.0 uM
[19] = biological target: Casein kinase I isoform epsilon (Homo sapiens) (UniProt P49674); settings: Compound concentration 1000.0 nM
Chain of Casein kinase I isoform epsilon (Homo sapiens) (P49674 whole entry, looked up, canonical isoform): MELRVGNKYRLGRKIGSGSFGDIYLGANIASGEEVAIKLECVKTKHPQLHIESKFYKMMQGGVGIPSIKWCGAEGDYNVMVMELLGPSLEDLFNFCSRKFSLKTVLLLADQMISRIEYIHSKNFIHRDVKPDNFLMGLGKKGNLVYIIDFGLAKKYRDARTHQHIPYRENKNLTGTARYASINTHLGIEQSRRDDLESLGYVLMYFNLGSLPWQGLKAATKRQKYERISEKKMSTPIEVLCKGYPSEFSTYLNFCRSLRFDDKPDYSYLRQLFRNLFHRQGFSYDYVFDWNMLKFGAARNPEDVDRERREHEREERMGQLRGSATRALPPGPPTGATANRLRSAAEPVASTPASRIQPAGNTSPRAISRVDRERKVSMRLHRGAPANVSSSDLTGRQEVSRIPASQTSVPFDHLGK

[20] = biological target: Citron Rho-interacting kinase (Homo sapiens) (UniProt O14578); settings: Compound concentration 1000.0 nM
[21] = biological target: Mitogen-activated protein kinase kinase kinase 9 (Homo sapiens) (UniProt P80192); settings: Compound concentration 1000.0 nM
[22] = biological target: Phosphatidylinositol 4-phosphate 5-kinase type-1 gamma (Homo sapiens) (UniProt O60331); settings: Compound concentration 1000.0 nM
[23] = biological target: RAC-gamma serine/threonine-protein kinase (Homo sapiens) (UniProt Q9Y243); settings: Compound concentration 1000.0 nM
Chain of RAC-gamma serine/threonine-protein kinase (Homo sapiens) (Q9Y243 whole entry): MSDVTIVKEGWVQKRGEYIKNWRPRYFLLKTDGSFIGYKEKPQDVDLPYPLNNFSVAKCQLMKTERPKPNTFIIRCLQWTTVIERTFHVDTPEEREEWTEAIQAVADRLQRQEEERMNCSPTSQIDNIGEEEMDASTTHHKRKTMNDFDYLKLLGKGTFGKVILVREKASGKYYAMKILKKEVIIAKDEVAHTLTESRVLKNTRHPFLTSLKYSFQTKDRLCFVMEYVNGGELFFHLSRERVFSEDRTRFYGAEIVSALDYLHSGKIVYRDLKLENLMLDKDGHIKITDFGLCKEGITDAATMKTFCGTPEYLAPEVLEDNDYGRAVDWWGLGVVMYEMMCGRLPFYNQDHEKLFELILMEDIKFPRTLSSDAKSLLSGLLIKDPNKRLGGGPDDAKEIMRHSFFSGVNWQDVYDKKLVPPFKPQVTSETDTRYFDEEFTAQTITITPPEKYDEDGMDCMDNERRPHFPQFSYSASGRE

[24] = biological target: Death-associated protein kinase 1 (Homo sapiens) (UniProt P53355); settings: Compound concentration 1000.0 nM
Chain of Death-associated protein kinase 1 (Homo sapiens) (P53355 whole entry, looked up): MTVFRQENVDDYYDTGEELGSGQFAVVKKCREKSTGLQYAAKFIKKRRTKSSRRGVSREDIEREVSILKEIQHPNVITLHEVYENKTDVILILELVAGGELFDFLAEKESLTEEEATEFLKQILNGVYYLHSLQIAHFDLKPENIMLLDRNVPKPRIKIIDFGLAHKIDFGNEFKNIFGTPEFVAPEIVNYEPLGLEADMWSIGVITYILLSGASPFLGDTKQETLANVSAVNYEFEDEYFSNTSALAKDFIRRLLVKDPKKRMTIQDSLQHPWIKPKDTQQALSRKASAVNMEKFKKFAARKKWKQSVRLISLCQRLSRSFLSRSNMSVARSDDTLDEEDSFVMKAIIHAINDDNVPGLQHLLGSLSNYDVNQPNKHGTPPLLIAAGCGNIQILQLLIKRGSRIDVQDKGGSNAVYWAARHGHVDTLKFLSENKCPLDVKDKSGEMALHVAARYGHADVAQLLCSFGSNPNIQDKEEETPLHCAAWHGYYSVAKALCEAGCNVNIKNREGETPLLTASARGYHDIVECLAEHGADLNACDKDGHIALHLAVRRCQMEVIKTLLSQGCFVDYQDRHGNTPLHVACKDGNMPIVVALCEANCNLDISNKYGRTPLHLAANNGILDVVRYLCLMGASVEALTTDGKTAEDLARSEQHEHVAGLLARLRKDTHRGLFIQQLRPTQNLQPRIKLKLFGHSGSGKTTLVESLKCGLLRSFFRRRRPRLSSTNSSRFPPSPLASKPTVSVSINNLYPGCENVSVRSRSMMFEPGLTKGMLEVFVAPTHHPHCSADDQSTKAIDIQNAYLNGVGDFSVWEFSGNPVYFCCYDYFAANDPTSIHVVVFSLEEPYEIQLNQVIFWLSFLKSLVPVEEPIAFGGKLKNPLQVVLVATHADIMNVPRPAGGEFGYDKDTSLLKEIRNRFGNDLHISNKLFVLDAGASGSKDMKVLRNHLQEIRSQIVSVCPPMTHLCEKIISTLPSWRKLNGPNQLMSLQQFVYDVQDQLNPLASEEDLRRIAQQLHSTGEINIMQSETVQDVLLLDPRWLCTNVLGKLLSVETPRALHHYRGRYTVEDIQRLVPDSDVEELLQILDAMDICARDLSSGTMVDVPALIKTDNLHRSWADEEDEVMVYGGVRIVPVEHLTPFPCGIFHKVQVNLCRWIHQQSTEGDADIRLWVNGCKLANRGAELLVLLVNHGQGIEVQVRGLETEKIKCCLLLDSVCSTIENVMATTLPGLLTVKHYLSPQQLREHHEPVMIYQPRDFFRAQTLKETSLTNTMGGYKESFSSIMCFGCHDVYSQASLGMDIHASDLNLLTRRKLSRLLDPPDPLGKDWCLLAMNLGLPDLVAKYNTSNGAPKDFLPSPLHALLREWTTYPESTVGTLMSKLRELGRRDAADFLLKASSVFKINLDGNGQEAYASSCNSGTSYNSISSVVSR

[25] = biological target: Receptor-interacting serine/threonine-protein kinase 4 (Homo sapiens) (UniProt P57078); settings: Compound concentration 1000.0 nM
[26] = biological target: Phosphatidylinositol 5-phosphate 4-kinase type-2 beta (Homo sapiens) (UniProt P78356); settings: Compound concentration 1000.0 nM
[27] = test system: Epidermal growth factor receptor (Homo sapiens), P00533 [G719S]; settings: Compound concentration 1000.0 nM
[28] = biological target: Serine/threonine-protein kinase MAK (Homo sapiens) (UniProt P20794); settings: Compound concentration 1000.0 nM
Chain of Serine/threonine-protein kinase MAK (Homo sapiens) (P20794 whole entry): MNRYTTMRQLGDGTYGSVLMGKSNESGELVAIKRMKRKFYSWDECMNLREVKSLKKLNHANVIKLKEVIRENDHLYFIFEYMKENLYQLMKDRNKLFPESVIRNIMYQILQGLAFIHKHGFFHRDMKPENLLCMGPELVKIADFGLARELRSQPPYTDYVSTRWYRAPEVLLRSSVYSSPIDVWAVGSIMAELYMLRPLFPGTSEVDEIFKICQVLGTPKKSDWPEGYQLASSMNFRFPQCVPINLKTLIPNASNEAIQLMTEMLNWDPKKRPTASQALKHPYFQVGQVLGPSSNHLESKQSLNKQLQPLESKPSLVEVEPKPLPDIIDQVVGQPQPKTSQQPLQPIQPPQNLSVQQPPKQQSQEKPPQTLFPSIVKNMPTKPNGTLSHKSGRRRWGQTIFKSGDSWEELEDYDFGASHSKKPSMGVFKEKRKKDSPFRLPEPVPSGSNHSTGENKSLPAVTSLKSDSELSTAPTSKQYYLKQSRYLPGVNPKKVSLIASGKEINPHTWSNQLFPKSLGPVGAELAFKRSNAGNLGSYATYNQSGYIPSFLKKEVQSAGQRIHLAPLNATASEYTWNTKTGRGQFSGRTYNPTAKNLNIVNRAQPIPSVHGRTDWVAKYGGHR

[29] = biological target: Serine/threonine-protein kinase 32C (Homo sapiens) (UniProt Q86UX6); settings: Compound concentration 1000.0 nM
[30] = biological target: Ephrin type-B receptor 1 (Homo sapiens) (UniProt P54762); settings: Compound concentration 1000.0 nM
[31] = biological target: T1, Alpha-2C adrenergic receptor (Homo sapiens, UniProt P18825); experiment: GPCRScan assay: inhibition of Alpha2C; design: radioligand conc. used [nm] 0.5 – 1.0, parental cells stable MDCK
T1 sequence (P18825 whole entry): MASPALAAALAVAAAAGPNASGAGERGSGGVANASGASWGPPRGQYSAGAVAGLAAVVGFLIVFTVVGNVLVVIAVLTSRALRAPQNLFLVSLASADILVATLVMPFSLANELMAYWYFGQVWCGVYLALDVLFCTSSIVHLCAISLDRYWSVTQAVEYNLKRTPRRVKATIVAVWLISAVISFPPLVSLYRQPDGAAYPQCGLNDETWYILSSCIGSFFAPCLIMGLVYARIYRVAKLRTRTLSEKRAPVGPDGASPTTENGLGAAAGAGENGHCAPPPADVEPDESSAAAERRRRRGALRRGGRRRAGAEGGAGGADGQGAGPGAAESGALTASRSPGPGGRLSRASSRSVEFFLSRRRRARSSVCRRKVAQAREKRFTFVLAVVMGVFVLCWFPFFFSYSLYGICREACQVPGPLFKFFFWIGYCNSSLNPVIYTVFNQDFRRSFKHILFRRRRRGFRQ

[32] = biological target: Insulin receptor (Homo sapiens) (UniProt P06213); settings: Compound concentration 1000.0 nM
[33] = biological target: Mitogen-activated protein kinase kinase kinase kinase 5 (Homo sapiens) (UniProt Q9Y4K4); settings: Compound concentration 1000.0 nM
[34] = biological target: Serine/threonine-protein kinase PAK 2 (Homo sapiens) (UniProt Q13177); settings: Compound concentration 1000.0 nM
Chain of Serine/threonine-protein kinase PAK 2 (Homo sapiens) (Q13177 whole entry): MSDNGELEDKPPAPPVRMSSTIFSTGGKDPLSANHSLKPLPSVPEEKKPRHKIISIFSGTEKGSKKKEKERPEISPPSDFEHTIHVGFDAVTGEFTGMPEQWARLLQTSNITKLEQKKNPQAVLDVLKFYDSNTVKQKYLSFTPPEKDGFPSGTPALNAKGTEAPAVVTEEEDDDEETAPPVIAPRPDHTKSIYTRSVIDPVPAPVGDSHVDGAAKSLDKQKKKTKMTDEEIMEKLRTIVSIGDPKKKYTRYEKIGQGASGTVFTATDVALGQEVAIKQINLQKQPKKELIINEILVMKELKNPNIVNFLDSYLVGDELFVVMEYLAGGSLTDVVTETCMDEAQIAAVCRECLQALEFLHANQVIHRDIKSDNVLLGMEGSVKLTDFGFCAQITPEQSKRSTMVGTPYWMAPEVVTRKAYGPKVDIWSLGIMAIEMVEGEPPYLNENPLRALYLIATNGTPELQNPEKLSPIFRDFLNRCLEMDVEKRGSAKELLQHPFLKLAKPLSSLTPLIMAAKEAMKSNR

[35] = biological target: Guanine nucleotide exchange factor DBS (Homo sapiens, UniProt O15068); experiment: CDC42 activation by DBS assay
[36] = test system: Receptor-type tyrosine-protein kinase FLT3 (Homo sapiens), P36888 [D835H]; settings: Compound concentration 1000.0 nM
[37] = biological target: Muscle, skeletal receptor tyrosine-protein kinase (Homo sapiens) (UniProt O15146); settings: Compound concentration 1000.0 nM
[38] = biological target: Serine/threonine-protein kinase Chk1 (Homo sapiens) (UniProt O14757); settings: Compound concentration 1000.0 nM
[39] = biological target: Inhibitor of nuclear factor kappa-B kinase subunit beta (Homo sapiens) (UniProt O14920); settings: Compound concentration 1000.0 nM

Row | Structure (SMILES) | residual activity [1] [%] | inhibition [2] [%] | residual activity [3] [%] | residual activity [4] [%] | residual activity [5] [%] | residual activity [6] [%] | residual activity [7] [%] | residual activity [8] [%] | residual activity [9] [%] | residual activity [10] [%] | residual activity [11] [%] | residual activity [12] [%] | residual activity [13] [%] | residual activity [14] [%] | residual activity [15] [%] | residual activity [16] [%] | residual activity [17] [%] | inhibition [18] [%] | residual activity [19] [%] | residual activity [20] [%] | further results
1 | CNCc1ccccc1-c1csc([C@@H](C)Nc2nc(C)nc3cc(OC)c(OC)cc23)c1 [BAY-293] | 77 | 98.5 | 100 | 100 | 75 | 61 | 85 | 72 | 73 | 100 | 100 | 100 | 98 | 70 | 85 | 100 | 87 | 100 | 99 | 92 | residual activity [21]: 98%; residual activity [22]: 88%; residual activity [23]: 92%; residual activity [24]: 99%; residual activity [25]: 91%; residual activity [26]: 100%; residual activity [27]: 69%; residual activity [28]: 100%; residual activity [29]: 60%; residual activity [30]: 100%; Ki ([31]; read-out: Ki): 131 nM; Ki ([31]; read-out: pKi (converted)): 130 nM; residual activity [32]: 79%; residual activity [33]: 100%; residual activity [34]: 88%; IC50 [35]: > 20000 nM (not active); residual activity [36]: 55%; residual activity [37]: 93%; residual activity [38]: 92%; residual activity [39]: 94%
2 | CNCc1ccccc1-c1csc([C@H](C)Nc2nc(C)nc3cc(OC)c(OC)cc23)c1 [BAY-294] | 93 | 99.2 | 100 | 100 | 81 | 100 | 93 | 90 | 78 | 93 | 100 | 100 | 91 | 88 | 84 | 100 | 83 | 101 | 91 | 100 | residual activity [21]: 100%; residual activity [22]: 100%; residual activity [23]: 95%; residual activity [24]: 100%; residual activity [25]: 75%; residual activity [26]: 100%; residual activity [27]: 84%; residual activity [28]: 97%; residual activity [29]: 71%; residual activity [30]: 100%; Ki ([31]; read-out: Ki): 95.2 nM; Ki ([31]; read-out: pKi (converted)): 91.2 nM; residual activity [32]: 89%; residual activity [33]: 100%; residual activity [34]: 97%; IC50 [35]: > 20000 nM (not active); residual activity [36]: 74%; residual activity [37]: 90%; residual activity [38]: 100%; residual activity [39]: 83%
